# According to ChEMBL document CHEMBL5143515, “Identification of new halogen-containing 2,4-diphenyl indenopyridin-5-one derivative as a boosting agent for the anticancer responses of clinically available topoisomerase inhibitors” (Eur J Med Chem, 2022):
# How the values were obtained:
# [1] = biological target: T1, DNA topoisomerase 1 (Homo sapiens) (UniProt P11387); assay: Inhibition of recombinant human topoisomerase 1 assessed as relaxation of supercoiled plasmid pBR322 DNA at 100 uM by agarose gel electrophoresis relative to control
# T1 sequence (whole entry): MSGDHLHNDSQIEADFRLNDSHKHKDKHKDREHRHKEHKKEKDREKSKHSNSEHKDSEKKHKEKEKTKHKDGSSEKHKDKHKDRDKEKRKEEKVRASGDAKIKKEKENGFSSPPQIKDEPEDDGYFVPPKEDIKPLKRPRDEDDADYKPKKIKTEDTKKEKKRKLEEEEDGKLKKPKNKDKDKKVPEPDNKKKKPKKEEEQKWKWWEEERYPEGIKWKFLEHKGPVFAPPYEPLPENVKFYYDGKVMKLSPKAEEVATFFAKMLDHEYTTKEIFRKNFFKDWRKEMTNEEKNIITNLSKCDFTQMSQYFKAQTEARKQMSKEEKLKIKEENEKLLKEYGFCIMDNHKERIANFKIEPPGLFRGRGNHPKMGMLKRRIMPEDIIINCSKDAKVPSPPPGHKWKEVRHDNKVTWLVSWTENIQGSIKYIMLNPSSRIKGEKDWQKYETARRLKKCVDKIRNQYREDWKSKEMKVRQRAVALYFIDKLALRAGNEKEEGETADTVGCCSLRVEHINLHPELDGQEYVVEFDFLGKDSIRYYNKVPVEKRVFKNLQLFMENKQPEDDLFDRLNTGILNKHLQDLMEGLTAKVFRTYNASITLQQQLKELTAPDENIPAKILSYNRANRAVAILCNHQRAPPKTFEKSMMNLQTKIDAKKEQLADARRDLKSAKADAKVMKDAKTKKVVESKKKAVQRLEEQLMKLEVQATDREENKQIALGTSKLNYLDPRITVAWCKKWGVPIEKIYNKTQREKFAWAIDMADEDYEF
# [2] = biological target: T1, DNA topoisomerase 1 (Homo sapiens); assay: Inhibition of recombinant human topoisomerase 1 assessed as relaxation of supercoiled plasmid pBR322 DNA at 100 uM by agarose gel electrophoresis (reference value: […]%)
# [3] = biological target: T1, DNA topoisomerase 1 (Homo sapiens); assay: Inhibition of recombinant human topoisomerase 1 assessed as relaxation of supercoiled plasmid pBR322 DNA at 20 uM by agarose gel electrophoresis relative to control
# [4] = biological target: DNA topoisomerase 2-alpha (Homo sapiens) (UniProt P11388); assay: Inhibition of recombinant human topoisomerase 2alpha assessed as relaxation of supercoiled plasmid pBR322 DNA at 100 uM by agarose gel electrophoresis (reference value: 84.9%)
# Sequence of DNA topoisomerase 2-alpha (Homo sapiens) (P11388 whole entry): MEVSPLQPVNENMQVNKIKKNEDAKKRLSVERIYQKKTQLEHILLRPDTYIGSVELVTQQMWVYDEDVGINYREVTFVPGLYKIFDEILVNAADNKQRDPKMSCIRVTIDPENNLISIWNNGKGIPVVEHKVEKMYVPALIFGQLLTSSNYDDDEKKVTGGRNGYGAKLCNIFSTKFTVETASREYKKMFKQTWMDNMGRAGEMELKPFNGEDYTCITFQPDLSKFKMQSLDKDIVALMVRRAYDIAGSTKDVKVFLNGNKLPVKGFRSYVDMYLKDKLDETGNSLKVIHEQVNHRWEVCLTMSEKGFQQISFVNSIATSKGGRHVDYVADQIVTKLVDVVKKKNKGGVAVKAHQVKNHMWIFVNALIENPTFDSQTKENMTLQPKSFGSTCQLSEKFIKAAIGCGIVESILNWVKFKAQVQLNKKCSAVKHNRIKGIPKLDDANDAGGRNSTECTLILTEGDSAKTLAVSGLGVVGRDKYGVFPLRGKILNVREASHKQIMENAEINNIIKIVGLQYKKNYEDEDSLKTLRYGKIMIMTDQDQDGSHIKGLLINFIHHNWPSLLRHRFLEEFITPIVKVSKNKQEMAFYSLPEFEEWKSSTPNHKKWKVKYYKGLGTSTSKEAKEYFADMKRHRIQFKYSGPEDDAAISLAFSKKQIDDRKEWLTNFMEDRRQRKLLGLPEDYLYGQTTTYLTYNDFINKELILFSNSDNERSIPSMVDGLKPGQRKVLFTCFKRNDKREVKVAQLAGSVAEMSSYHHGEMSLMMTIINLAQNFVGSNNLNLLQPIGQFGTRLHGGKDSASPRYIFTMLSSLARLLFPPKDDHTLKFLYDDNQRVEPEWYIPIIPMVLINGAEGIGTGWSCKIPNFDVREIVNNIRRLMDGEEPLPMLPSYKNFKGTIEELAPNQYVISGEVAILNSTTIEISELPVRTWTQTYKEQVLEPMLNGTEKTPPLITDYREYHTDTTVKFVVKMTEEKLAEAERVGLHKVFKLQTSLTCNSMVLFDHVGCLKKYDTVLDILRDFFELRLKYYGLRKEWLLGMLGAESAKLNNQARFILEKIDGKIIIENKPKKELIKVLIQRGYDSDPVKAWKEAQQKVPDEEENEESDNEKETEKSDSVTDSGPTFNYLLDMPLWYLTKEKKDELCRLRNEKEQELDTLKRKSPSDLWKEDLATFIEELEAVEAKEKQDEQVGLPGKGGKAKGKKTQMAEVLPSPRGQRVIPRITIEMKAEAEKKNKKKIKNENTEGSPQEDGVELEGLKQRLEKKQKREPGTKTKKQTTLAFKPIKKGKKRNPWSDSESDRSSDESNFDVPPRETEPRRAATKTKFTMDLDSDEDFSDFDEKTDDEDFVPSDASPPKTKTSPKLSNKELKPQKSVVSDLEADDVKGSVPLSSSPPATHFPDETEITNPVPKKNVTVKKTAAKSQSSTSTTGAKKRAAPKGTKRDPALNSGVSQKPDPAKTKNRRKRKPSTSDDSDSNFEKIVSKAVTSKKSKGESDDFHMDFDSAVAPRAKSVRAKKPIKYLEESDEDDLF
# [5] = biological target: DNA topoisomerase 2-alpha (Homo sapiens) (UniProt P11388); assay: Inhibition of recombinant human topoisomerase 2alpha assessed as relaxation of supercoiled plasmid pBR322 DNA at 20 uM by agarose gel electrophoresis relative to control
# DU-145 = assay: Antiproliferative activity against human DU-145 cells after 72 hrs by EZ-Cytox colorimetric assay; type: functional, cell-based; conditions: DU-145, 72 h
# HCT-15 = assay: Antiproliferative activity against human HCT-15 cells after 72 hrs by EZ-Cytox colorimetric assay; type: functional, cell-based; conditions: HCT-15, 72 h
# HeLa = assay: Antiproliferative activity against human HeLa cells after 72 hrs by EZ-Cytox colorimetric assay; type: functional, cell-based
# T47D = assay: Antiproliferative activity against human T47D cells after 72 hrs by EZ-Cytox colorimetric assay; type: functional, cell-based
# [6] = biological target: DNA topoisomerase 2-alpha (Homo sapiens) (UniProt P11388); assay: Inhibition of recombinant human topoisomerase 2alpha assessed as relaxation of supercoiled plasmid pBR322 DNA at 100 uM by agarose gel electrophoresis relative to control
# [7] = Genotoxicity in human HCT-15 cells assessed as production of Ub1-gamma-H2AX at 100 nM and measured by western blot analysis; type: toxicity, cell-based; conditions: hct-15, 0.1 µM
# [8] = Genotoxicity in human HCT-15 cells assessed as production of gamma-H2AX at 100 nM and measured by western blot analysis; type: toxicity, cell-based; conditions: hct-15, 0.1 µM
# [9] = Genotoxicity in human HCT-15 cells assessed as production of fragmented DNA tails at 100 nM and measured by comet assay; type: toxicity, cell-based; conditions: hct-15, 0.1 µM
# [10] = Genotoxicity in human HCT-15 cells assessed as production of Ub1-gamma-H2AX at 1 nM and measured by western blot analysis; type: toxicity, cell-based; conditions: hct-15, 0.001 µM
# [11] = Genotoxicity in human HCT-15 cells assessed as production of gamma-H2AX at 1 nM and measured by western blot analysis; type: toxicity, cell-based; conditions: hct-15, 0.001 µM
# [12] = Genotoxicity in human HCT-15 cells assessed as production of fragmented DNA tails at 1 nM and measured by comet assay; type: toxicity, cell-based; conditions: hct-15, 0.001 µM
# [13] = Genotoxicity in human HCT-15 cells assessed as production of Ub1-gamma-H2AX at 2 uM and measured by western blot analysis; type: toxicity, cell-based; conditions: hct-15, 2 µM
# [14] = Genotoxicity in human HCT-15 cells assessed as production of gamma-H2AX at 2 uM and measured by western blot analysis; type: toxicity, cell-based; conditions: hct-15, 2 µM
# [15] = Genotoxicity in human HCT-15 cells assessed as production of fragmented DNA tails at 2 uM and measured by comet assay; type: toxicity, cell-based; conditions: hct-15, 2 µM
# [16] = Genotoxicity in human HCT-15 cells assessed as production of Ub1-gamma-H2AX at 0.2 uM and measured by western blot analysis; type: toxicity, cell-based; conditions: hct-15, 0.2 µM
# [17] = Genotoxicity in human HCT-15 cells assessed as production of gamma-H2AX at 0.2 uM and measured by western blot analysis; type: toxicity, cell-based; conditions: hct-15, 0.2 µM
# [18] = Genotoxicity in human HCT-15 cells assessed as production of fragmented DNA tails at 0.2 uM and measured by comet assay; type: toxicity, cell-based; conditions: hct-15, 0.2 µM
# [19] = Toxicity in mouse assessed as reduction in number of white blood cells at 2 to 20 mg/kg; type: organism-based; conditions: in vivo, dose 2-20 mg/kg
# [20] = Toxicity in mouse assessed as reduction in number of absolute neutrophil count at 2 to 20 mg/kg; type: organism-based; conditions: dose 2-20 mg/kg
# [21] = Toxicity in mouse assessed as reduction in number of red blood cells at 20 mg/kg; type: organism-based; conditions: in vivo
# [22] = Toxicity in mouse assessed as reduction in hemoglobin level at 20 mg/kg; type: organism-based; conditions: in vivo
# [23] = Toxicity in mouse assessed as increase in mean corpuscular volume of RBC at 20 mg/kg; type: organism-based, Erythrocyte; conditions: in vivo
# [24] = Toxicity in mouse assessed as increase in d red cell distribution width at 20 mg/kg; type: organism-based; conditions: in vivo
# [25] = Toxicity in mouse assessed as reduction in number of red blood cells at 2 mg/kg; type: organism-based; conditions: in vivo
# [26] = Toxicity in mouse assessed as reduction in hemoglobin level at 2 mg/kg; type: organism-based; conditions: in vivo
# [27] = Toxicity in mouse assessed as increase in mean corpuscular volume of RBC at 2 mg/kg; type: organism-based, Erythrocyte; conditions: in vivo
# [28] = Toxicity in mouse assessed as increase in d red cell distribution width at 2 mg/kg; type: organism-based; conditions: in vivo
smiles,measurement,setting,value
O=C1c2ccccc2-c2nc(-c3ccc(O)cc3)cc(-c3ccccc3)c21,inhibition,[1],0%
OC1c2ccccc2-c2nc(-c3ccccc3OC(F)(F)F)cc(-c3ccccc3)c21 (stereo unspecified),inhibition,[2],37.4%
same,inhibition,[3],1%
same,inhibition,[4],86%
same,inhibition,[5],13.8%
same,IC50,DU-145,0.71 µM
same,IC50,HCT-15,7.33 µM
same,IC50,HeLa,1730 µM
same,IC50,T47D,1.06 µM
OC1c2ccccc2-c2nc(-c3ccccc3)cc(-c3ccccc3)c21 (stereo unspecified),inhibition,[3],0%
O=C1c2ccccc2-c2nc(-c3ccccc3)cc(-c3ccccc3)c21,inhibition,[6],2.5%
CC[C@@]1(O)C(=O)OCc2c1cc1n(c2=O)Cc2cc3ccccc3nc2-1 [CAMPTOTHECIN],IC50,DU-145,0.21 µM
same,IC50,HeLa,0.23 µM
same,IC50,T47D,0.09 µM
same,Activity,[7],Toxic
same,Activity,[8],Toxic
same,Activity,[9],Toxic
same,Activity,[10],Non-Toxic
same,Activity,[11],Non-Toxic
same,Activity,[12],Non-Toxic
O=C1c2ccccc2-c2nc(-c3ccccc3O)cc(-c3ccccc3)c21,inhibition,[1],0%
COc1cc([C@@H]2c3cc4c(cc3[C@@H](O[C@@H]3O[C@@H]5CO[C@@H](C)O[C@H]5[C@H](O)[C@H]3O)[C@H]3COC(=O)[C@H]23)OCO4)cc(OC)c1O [ETOPOSIDE],IC50,DU-145,4.13 µM
same,IC50,HCT-15,2.38 µM
same,IC50,HeLa,8.09 µM
same,IC50,T47D,5.58 µM
same,Activity,[13],Toxic
same,Activity,[14],Toxic
same,Activity,[15],Toxic
same,Activity,[16],Non-Toxic
same,Activity,[17],Non-Toxic
same,Activity,[18],Non-Toxic
same,Activity,[19],Toxic
same,Activity,[20],Toxic
same,Activity,[21],Toxic
same,Activity,[22],Toxic
same,Activity,[23],Toxic
same,Activity,[24],Toxic
same,Activity,[25],Non-Toxic
same,Activity,[26],Non-Toxic
same,Activity,[27],Non-Toxic
same,Activity,[28],Non-Toxic
